US12491271B2, “Positron emission tomography radiotracer for diseases associated with translocator protein overexpression, translocator protein-targeting ligand for fluorescence imaging-guided surgery and photodynamic therapy, and production methods therefor” (Seoul National University R&DB Foundation, priority 2018, dated 2025)

Columns and labels:
TSPO = TSPO (Homo sapiens, UniProt P30536); conditions: compared with earlier tracer [11C]PK11195, background art; cited from earlier work
[1] = In vitro stability in human serum; format: in vitro ADME; conditions: human serum mixed with 1% ethanol/water, 37° C., for up to 120 minutes
Method: In an experiment on the in vitro stability of the fluorine-18-labeled PET radiotracer ([^18F]BS224) for targeting translocator protein overexpression, 0.4 mL of human serum was mixed with 0.4 mL of 1% ethanol/water containing the fluorine-18-labeled radiotracer ([^18F]BS224), and then the solution was incubated at 37° C. for 0, 10, 30, 60 and 120 minutes and then analyzed by thin film chromatography.

[2] = Measurement of lipophilicity (n-octanol / sodium phosphate buffer partition); format: physicochemical; conditions: n-octanol / sodium phosphate buffer 0.15 M, pH 7.4; measured five times; read-out: lipophilicity (ratio of counts per minute from n-octanol versus sodium phosphate buffer) (converted)
Method: For the measurement of lipophilicity, [^18F]BS224 dispersed in 5% ethanol/saline was added to and mixed with n-octanol (5 mL) and sodium phosphate buffer (0.15 M, pH 7.4, 5.0 mL), and then lipophilicity was measured five times. Samples of each phase were counted for radioactivity, and the lipophilicity was expressed as the ratio of the counts per minute from n-octanol versus that of the sodium phosphate buffer. The lipophilicity of [^18F]BS224 was 2.78±0.4.

Sequence of TSPO (P30536 whole entry): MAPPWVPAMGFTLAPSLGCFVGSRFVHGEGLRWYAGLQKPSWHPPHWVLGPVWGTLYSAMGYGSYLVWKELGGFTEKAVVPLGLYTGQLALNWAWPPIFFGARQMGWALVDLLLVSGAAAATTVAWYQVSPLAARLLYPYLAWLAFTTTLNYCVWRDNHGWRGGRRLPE

SMILES | higher uptake (TSPO) [fold] | stability of radiotracer in human serum (thin film chromatography) [1] | logD [2]
COc1ccc(OC)c(CN(C(C)=O)c2cc(F)ccc2Oc2ccccc2)c1 [[^11C]DAA1106] | 4 | – | –
CCCN(CCC)C(=O)Cc1c(-c2ccc([18F])cc2)nc2c(Cl)cc(Cl)cn12 [[^18F]BS224, 2-(6,8-dichloro-2-(4-[^18F]fluorophenyl)imidazo[1,2-a]pyridin-3-yl)-N, N-dipropylacetamide] | – | at least 98.7% | 0.444
